Earlier results, collected in patent publication US5288707A, “Borolysine peptidomimetics” (Sandoz Ltd., priority 1990, dated 1994).

How the values were obtained:
thrombin = thrombin (Homo sapiens, UniProt P00734); conditions: reversible and irreversible inhibitors, value given as a range of magnitude
[1] = in vivo

NC(N)=NCCC[C@H](NC(=O)[C@@H]1CCCN1C(=O)[C@H](N)Cc1ccccc1)C(=O)CCl [D-Phe-Pro-Arg-CH2 Cl]
inhibition in vitro (thrombin): ~10^-8 M

N=C(N)NCCC[C@@H](C=O)NC(=O)[C@@H]1CCCN1C(=O)[C@H](N)Cc1ccccc1 [D-Phe-Pro-Arginal]
inhibition in vitro (thrombin): ~10^-8 M
LD50 value [1]: quite a low
